Data from a melting point compilation (Tetko et al.; mined from patent text by program, amines drawn as free bases though some values may be those of a salt).

Molecule CC(C)(C)c1cc(SC2CC(=O)N(c3ccccc3)C2=O)cc(C(C)(C)C)c1O (stereo not drawn) has a melting point of 134 to 137 °C. In the case of O=C(O)Cc1cc(=O)c(O)cn1Cc1ccccc1, the melting point is reported as 231 to 235 °C. CC(C)C(=O)N[C@H]1C[C@@H](c2cc(NC(=O)Cc3cccc4ccccc34)n[nH]2)C1 gave a melting point of 131 °C. In the case of C=Cc1ccc(C#N)cn1, the melting point is reported as 29 to 30 °C. CCOC(=O)C1(C(=O)OCC)CC(c2ccc(Cl)cc2[N+](=O)[O-])=CN1C(C)=O gave a melting point of 90 to 95 °C. Work on COc1cc2c(nc1OC)c(-c1cc3c(Cl)c(F)cnc3[nH]1)cn2CCN1CCOCC1 yielded a melting point of 206 °C. Molecule O=C(O)c1sc(C(F)(F)F)cc1OCc1ccccc1 has a melting point of 142 to 144 °C. Work on O=C(Cn1ccnc1[N+](=O)[O-])NCCO yielded a melting point of 164 to 165 °C. In the case of NS(=O)(=O)c1ccc(-c2c(CC(O)c3ccc(Cl)cc3)noc2-c2ccccc2)cc1 (stereo not drawn), the melting point is reported as 165 to 167 °C. CN1CCC(c2cc3ccccc3c(=O)[nH]2)CC1 gave a melting point of 255 to 257 °C. Molecule Cc1nc(OC(C)C)c([N+](=O)[O-])c(N2CCN(c3ccc(F)cc3)CC2)n1 has a melting point of 98 to 100 °C. CCOC(=O)c1cc2ccc(C)c(Cl)c2[nH]1 showed a melting point of 73 to 75 °C. Cc1cc2c(c(C(O)c3cn(C(c4ccccc4)(c4ccccc4)c4ccccc4)cn3)c1)OC(C)(C)OC2 (stereo not drawn) showed a melting point of 205 to 215 °C. For O=C(O)C1CCOc2c(Cl)cc(-c3ccccc3)cc21 (stereo not drawn), the melting point was 187 to 188 °C. Work on Cc1cccc(Cl)c1NS(=O)(=O)c1nc2sccn2n1 yielded a melting point of 91 to 93 °C. CSc1c2c3c(cccc3n1C)C1C=C(C)CN(C)C1C2 (stereo not drawn) gave a melting point of 115 to 116 °C. For O=C1Nc2ccc(CN3C(=O)CSC3=O)c(F)c2C1=Cc1cc(CN2CCOCC2)c[nH]1, the melting point was 246 to 248 °C. For COC(=O)c1nsnc1N, the melting point was 142 to 143 °C. In the case of C[C@H](OC(=O)NCCC(F)(F)C(F)(F)F)C(=O)N[C@@H]1C(=O)N(CCO)c2ccccc2-c2ccccc21, the melting point is reported as 181 to 184 °C. O=C(O)CCCCCCCCCCc1ccc(F)cc1F showed a melting point of 56 °C. Work on CC[C@@H](c1ccccc1)N(Cc1ccc(C(=O)O)cn1)S(=O)(=O)c1ccc(Cl)cc1 yielded a melting point of 112 to 113 °C. For CC(C)(CCCc1cccnc1)NC(=O)C=CC=C(c1cccc(F)c1)c1cccc(F)c1, the melting point was 135 to 136 °C. CCc1nnc2c(Nc3ccccc3)nc3ccccc3n12 gave a melting point of 172 to 174 °C. Molecule C[Si](C)(C)/C=C/c1c(N)nc(-c2ccc(Cl)c(F)c2F)nc1C(=O)O has a melting point of 155 to 157 °C. For COC(=O)C1=C(C)NC(C)=C(C(=O)OCCCBr)C1c1cccc([N+](=O)[O-])c1 (stereo not drawn), the melting point was 112 to 114 °C. Work on COc1ccc2c(c1)c(CC(=O)Oc1cccc(CO[N+](=O)[O-])c1)c(C)n2C(=O)c1ccc(Cl)cc1 yielded a melting point of 115 to 117 °C. With OCc1ccc(OCc2csc(-c3ccccc3)n2)cc1 the melting point was 145 to 146 °C. In the case of Cc1cc(Oc2ccc(NC(=O)Nc3ccc(N(CCCl)CCCl)cc3)cc2)c2cc3c(cc2n1)OCO3, the melting point is reported as 217 to 218 °C. Molecule O=C1c2ccc([N+](=O)[O-])cc2COc2cc(-n3cnnn3)ccc21 has a melting point of 123 to 126 °C. Molecule COc1ccccc1[C@H](c1cccc2ccccc12)[C@@](C)(C#N)C(=O)N1CCC(C2CCCC(C(F)(F)F)C2)CC1 (stereo partly drawn) has a melting point of 160 to 165 °C. CC(C)c1nn2ccccc2c1C(O)C(C)C (stereo not drawn) showed a melting point of 69 °C. In the case of COC(=O)/C=C/c1c(SC(F)(F)F)c(C#N)nn1-c1c(Cl)cc(C(F)(F)F)cc1Cl, the melting point is reported as 90 °C. Molecule COC(=O)[C@@H]1CCC(c2cccc(O)c2)N1C(=O)CNC(=O)OCc1ccccc1 (stereo partly drawn) has a melting point of 173 °C. Cc1cccc(Nc2cc(Nc3ccc(OCC(O)CN(C)C)cc3)ncn2)c1 (stereo not drawn) gave a melting point of 192 to 195 °C. In the case of CN1C(=O)NC(Cc2c[nH]c3ccccc23)C1CCc1cc(C(F)(F)F)cc(C(F)(F)F)c1 (stereo not drawn), the melting point is reported as 191 °C. Work on O=C(C=C1CCCN1)c1ccc(Cl)c(Cl)c1 yielded a melting point of 208 to 209 °C. Molecule Cc1nc(-n2cc(C(=O)Nc3ccccc3)ccc2=O)sc1C(=O)NCc1ccccc1 has a melting point of 223 to 225 °C. CNc1nn2cc(-c3ccccc3)nc2s1 gave a melting point of 177 °C.
